Laboratory results from ChEMBL document CHEMBL4020846 (J Med Chem, 2018).
Activity calls are given as the source filed them. The rule behind the calls is not given here.

Tests used:
PBMC [1] = test: Immunostimulatory activity in human PBMC assessed as increase in TNF-alpha release at 2 uM after 18 hrs in presence of LPS by flow cytometry relative to control; type: functional
Mus musculus = test: Immunoadjuvant activity in ovalbumin-induced NIH/OlaHsd mouse model of adjuvancy assessed as induction of ovalbumin-specific humoral immune response by measuring increase in anti-OVA IgG level in serum at 200 ug, sc using liposome encapsulated compound measured on day 7 post second booster by ELISA; type: functional, organism-based
PBMC [2] = test: Immunostimulatory activity in human PBMC assessed as increase in IL-6 release at 2 uM after 18 hrs in presence of LPS by flow cytometry relative to control; type: functional
[3] = target: T1, Nucleotide-binding oligomerization domain-containing protein 1 (Homo sapiens) (UniProt Q9Y239); test: Agonist activity at human NOD1 expressed in HEK-Blue cells assessed as induction of NF-kB transcriptional activity at 20 uM after 18 hrs by SEAP reporter gene assay; type: cell-based
T1 sequence (whole entry): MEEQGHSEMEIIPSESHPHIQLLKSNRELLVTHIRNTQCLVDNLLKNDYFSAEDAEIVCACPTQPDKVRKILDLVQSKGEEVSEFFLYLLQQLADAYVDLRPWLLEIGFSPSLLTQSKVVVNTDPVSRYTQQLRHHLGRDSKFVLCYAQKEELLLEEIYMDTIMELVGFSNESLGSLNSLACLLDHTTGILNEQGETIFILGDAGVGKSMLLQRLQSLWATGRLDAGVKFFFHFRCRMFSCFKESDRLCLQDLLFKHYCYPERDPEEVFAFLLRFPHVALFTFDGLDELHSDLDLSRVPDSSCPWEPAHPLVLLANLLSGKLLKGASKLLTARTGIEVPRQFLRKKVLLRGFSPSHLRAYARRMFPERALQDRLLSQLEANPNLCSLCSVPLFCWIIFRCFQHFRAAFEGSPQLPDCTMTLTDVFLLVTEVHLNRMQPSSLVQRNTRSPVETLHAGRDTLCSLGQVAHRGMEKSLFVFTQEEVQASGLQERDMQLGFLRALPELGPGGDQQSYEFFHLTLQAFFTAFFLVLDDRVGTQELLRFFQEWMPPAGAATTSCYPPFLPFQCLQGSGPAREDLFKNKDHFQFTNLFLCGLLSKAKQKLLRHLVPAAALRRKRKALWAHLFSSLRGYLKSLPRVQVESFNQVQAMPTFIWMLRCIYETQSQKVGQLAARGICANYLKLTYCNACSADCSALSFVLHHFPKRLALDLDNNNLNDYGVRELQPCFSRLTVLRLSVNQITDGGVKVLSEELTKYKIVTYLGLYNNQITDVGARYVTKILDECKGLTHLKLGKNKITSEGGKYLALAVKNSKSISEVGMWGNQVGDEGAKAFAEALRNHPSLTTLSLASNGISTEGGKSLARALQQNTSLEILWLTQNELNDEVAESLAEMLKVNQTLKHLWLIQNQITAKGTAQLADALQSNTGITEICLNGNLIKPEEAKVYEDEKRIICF

[4] = Cytotoxicity against HEK-Blue cells over-expressing NOD2 assessed as residual metabolic activity at 20 uM after 18 hrs by CellTiter 96 aqueous one solution cell proliferation assay relative to control; type: ADME, cell-based; details: human, read-out: Activity
PBMC [5] = test: Immunostimulatory activity in human PBMC assessed as increase in IL-10 release at 2 uM after 18 hrs by flow cytometry; type: functional, cell-based
PBMC [6] = test: Immunostimulatory activity in human PBMC assessed as increase in IL-2 release at 2 uM after 18 hrs in presence of LPS by flow cytometry; type: functional, cell-based
[7] = Drug metabolism in HEK293 cells assessed as retention time at 2 uM by LC-MS analysis; type: ADME, cell-based; details: human, hek293, 2 µM
[8] = Drug level in HEK293 cells cytosol at 2 uM after 18 hrs by LC-MS analysis; type: ADME, cell-based; details: human
PBMC [9] = test: Immunostimulatory activity in human PBMC assessed as increase in IL-6 release at 2 uM after 18 hrs by flow cytometry; type: functional, cell-based
[10] = Stability in HEK293 cells at 2 uM up to 18 hrs by LC-MS analysis; type: ADME, cell-based; details: human, hek293, 18 h
PBMC [11] = test: Immunostimulatory activity in human PBMC assessed as increase in IL-10 release at 2 uM after 18 hrs in presence of LPS by flow cytometry relative to control; type: functional
PBMC [12] = test: Immunostimulatory activity in human PBMC assessed as increase in IL-17A release at 2 uM after 18 hrs in presence of LPS by flow cytometry; type: functional, cell-based
[13] = Drug uptake in HEK293 cells cytosol at 2 uM after 18 hrs by LC-MS analysis; type: ADME, cell-based; details: human
[14] = Pyrogenic activity in Atlantic horseshoe crab blood limulus amebocyte lysate by bacterial endotoxin test; type: ADME; details: limulus polyphemus
PBMC [15] = test: Immunostimulatory activity in human PBMC assessed as increase in IL-4 release at 2 uM after 18 hrs in presence of LPS by flow cytometry; type: functional, cell-based
PBMC [16] = test: Immunostimulatory activity in human PBMC assessed as increase in IFNgamma release at 2 uM after 18 hrs in presence of LPS by flow cytometry; type: functional, cell-based
PBMC [17] = test: Immunostimulatory activity in human PBMC assessed as increase in TNF-alpha release at 2 uM after 18 hrs by flow cytometry; type: functional, cell-based

Structure (SMILES): CCOC(=O)CC[C@@H](NC(=O)[C@@H](NC(=O)CNC(=O)/C=C/c1ccc(O)c(OC)c1)C(C)C)C(=O)OCC
- fold change (FC) (PBMC [1]): 3
- Activity (Mus musculus): Active
- fold change (FC) (PBMC [2]): 4
- Activity [3]: inactive
- viability at 18 h, 20 µM [4]: > 80%
- Activity (PBMC [5]): Active
- Activity (PBMC [6]): Active
- Retention_time [7]: 3.53 min
- Drug uptake [8]: 0.13 µM
- Activity (PBMC [9]): Active
- Stability [10]: Stable
- fold change (FC) (PBMC [11]): 5
- Activity (PBMC [12]): Active
- Drug uptake [13]: 40%
- Activity [14]: Non-Toxic
- Activity (PBMC [15]): Active
- Activity (PBMC [16]): Active
- Activity (PBMC [17]): Active
